As a reminder, the Ki is the equilibrium dissociation constant of an inhibitor or competing ligand from its target.

The target of one assay is COT (Homo sapiens, UniProt P41279). Description: spectrophotometric coupled-enzyme kinase inhibition assay. The class given is biochemical. The note with it: read-out: Ki or IC50 COT. A digest of the protocol: (§1)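 PK/LDH-coupled NADH depletion, A340 over 10 min at 30°C. Kinase 10–40 nM, EGFR peptide 200 µM–500 µM substrate, ATP = Km, 0.1 M HEPES pH 7.5, 10 mM MgCl2, 2 mM DTT; 10 min inhibitor preincubation. IC50 or Ki (competitive model).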

In the next assay the target is FAK (Homo sapiens, UniProt Q05397). The assay is described as above. The note with it: read-out: Ki or IC50 FAK. In kind it is biochemical. In outline:
as §1

Sequence of FAK (Q05397 whole entry, species assumed): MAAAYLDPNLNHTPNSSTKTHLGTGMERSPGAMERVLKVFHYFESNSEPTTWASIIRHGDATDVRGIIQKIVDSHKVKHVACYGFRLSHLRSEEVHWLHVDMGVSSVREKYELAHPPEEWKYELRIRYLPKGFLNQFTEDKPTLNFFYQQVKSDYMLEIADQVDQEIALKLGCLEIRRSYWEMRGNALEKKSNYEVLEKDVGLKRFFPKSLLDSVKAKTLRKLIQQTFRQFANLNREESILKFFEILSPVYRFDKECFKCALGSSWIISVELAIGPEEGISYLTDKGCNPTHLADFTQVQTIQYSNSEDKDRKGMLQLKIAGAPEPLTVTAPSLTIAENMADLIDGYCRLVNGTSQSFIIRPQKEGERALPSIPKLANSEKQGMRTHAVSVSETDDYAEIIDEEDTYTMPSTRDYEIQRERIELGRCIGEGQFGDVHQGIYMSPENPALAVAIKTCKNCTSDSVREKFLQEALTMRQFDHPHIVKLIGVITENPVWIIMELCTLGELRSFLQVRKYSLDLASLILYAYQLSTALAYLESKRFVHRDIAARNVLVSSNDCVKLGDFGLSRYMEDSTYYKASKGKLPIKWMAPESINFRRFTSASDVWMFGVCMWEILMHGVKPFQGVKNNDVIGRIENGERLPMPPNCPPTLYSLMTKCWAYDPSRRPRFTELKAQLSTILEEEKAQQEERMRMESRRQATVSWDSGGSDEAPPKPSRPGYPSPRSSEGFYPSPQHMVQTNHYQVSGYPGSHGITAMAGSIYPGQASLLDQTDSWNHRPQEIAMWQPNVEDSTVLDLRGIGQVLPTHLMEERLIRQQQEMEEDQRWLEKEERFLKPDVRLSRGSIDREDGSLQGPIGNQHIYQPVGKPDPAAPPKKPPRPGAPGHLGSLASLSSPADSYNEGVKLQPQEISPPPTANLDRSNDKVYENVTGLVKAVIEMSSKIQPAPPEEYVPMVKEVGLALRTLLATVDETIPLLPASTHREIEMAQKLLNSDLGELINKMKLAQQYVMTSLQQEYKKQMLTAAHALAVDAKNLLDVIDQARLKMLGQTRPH
Sequence of COT (P41279 whole entry): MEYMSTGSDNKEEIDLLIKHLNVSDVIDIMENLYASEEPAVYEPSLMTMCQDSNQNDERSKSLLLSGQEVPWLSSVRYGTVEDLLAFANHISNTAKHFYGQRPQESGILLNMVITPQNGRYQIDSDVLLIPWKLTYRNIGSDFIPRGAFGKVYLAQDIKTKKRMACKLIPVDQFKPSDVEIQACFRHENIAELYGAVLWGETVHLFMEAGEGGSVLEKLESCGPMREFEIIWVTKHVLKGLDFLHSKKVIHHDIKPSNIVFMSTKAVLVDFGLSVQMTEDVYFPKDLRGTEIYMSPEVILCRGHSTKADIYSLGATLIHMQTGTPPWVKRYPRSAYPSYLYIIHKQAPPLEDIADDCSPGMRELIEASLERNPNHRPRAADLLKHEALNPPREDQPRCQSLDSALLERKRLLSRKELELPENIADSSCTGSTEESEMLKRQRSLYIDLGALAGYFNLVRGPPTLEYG

With `OC[C@@H]1CCCN1Cc1onc(-c2ccc(F)cc2)c1-c1ccnc(NC2CCCCC2)n1` [V-05-014], the inhibition constant (Ki) at COT and at FAK was > 1000 nM each time.

Values taken from article PMC3776780, “Dual p38/JNK Mitogen Activated Protein Kinase Inhibitors Prevent Ozone-Induced Airway Hyperreactivity in Guinea Pigs” (PLoS ONE, 2013).
